Data on four molecules can be found in PMC6028453, “BrlR from Pseudomonas aeruginosa is a receptor for both cyclic di-GMP and pyocyanin” (Nature Communications, 2018).

Data set [1] concerns the target T1, BrlR (Pseudomonas aeruginosa, UniProt Q9HUT5).
T1 construct: His6-SUMO (N, cleaved yes); made in house; host or cells: E. coli BL21 DE3
Particulars: ref 1 (Chambers et al., 2014) of response letter; cited from earlier work.

Data set [2] deals with T2, BrlR-C (Pseudomonas aeruginosa, UniProt Q9HUT5).
T2 construct: His6 (cleaved yes); made in house; host or cells: E. coli (same protocol as BrlR, induction at 18 °C)
The data set is described as follows: FP competition experiment, BrlR-C. The format is binding. Particulars: 550 μM BrlR-C, 1 nM F-c-di-GMP. Here is the method: Supplementary Figure 11: FP analyses of F-c-di-GMP binding to BrlR-C. (a) Isotherms of BrlR-C binding to F-c-di-GMP. The binding experiment was carried out at 25 °C in a buffer containing 150 mM NaCl, 25 mM Tris·HCl (pH 7.5), and 1 nM F-c-di-GMP. Increasing concentrations of BrlR-C were titrated into the reaction mixture to obtain the binding isotherms. (b) Fluorescence polarization competition experiment of BrlR-C. As a control, 550 μM BrlR-C was added to the reaction tube containing 1 nM F-c-di-GMP, and different competitors were respectively added in the solution and the values of millipolarization were recorded.
(1 picture or pasted object on this page, not shown here)

Data set [3] has as its target T3, BrlR-C domain (Pseudomonas aeruginosa, UniProt Q9HUT5).
T3 construct: His6 (cleaved yes); made in house; host or cells: E. coli (same protocol as BrlR, induction at 18 °C)
The experiment in a line: Native gel staining with EB. The format is binding. From the text:
Fig. 5 The BrlR-C domain can bind to diverse toxic compounds with two adjacent binding pockets. a Structural superpositions of BrlR-C and RH6G-bound SAV2435 (PDB code: 5KAU). The residues in contact with the ligand are shown as stick models and are labeled. Electron density (2Fo - Fc map) for imidazole (blue mesh) binding to the BrlR–c-di-GMP complex is contoured at the 1σ level. b The chemical structures of toxic compounds. c FP analyses of the fluorescein binding to BrlR. The binding curves were fit to deduce the binding affinities. d Two μg of BrlR variants were run on the native gel and stained with EB; the scan results are shown in the upper panel. The proteins were visualized by staining with Coomassie blue in the lower panel. e SPR sensorgram and the resulting affinity fit for pyocyanin binding to BrlR. The ligand binding and dissociation phases for all sensorgrams are shown in the upper panel. The concentrations of a pyocyanin are indicated. The binding responses were measured for 4 s before the end of the injection, and the KD values were calculated using the BIAevaluation software in the lower panel. f The monomeric structure of BrlR-C-3A2P complex. 3A2P, PEG and the conserved residues are shown in stick mode. […]
of multidrug inducers in their C-terminal multidrug-binding domains1-3. […]
However, much more dimers than tetramers were detected (Supplementary Fig. 13a). […]

Data set [4] deals with T1, BrlR. The data set is described as follows: Fluorescence polarization (FP) binding assay, wild-type BrlR. Particulars: 1 nM fluorescent ligand, 25 °C. The source says: The most striking feature of the BrlR–c-di-GMP complex is the c-di-GMP-binding mode. The DNA-binding domain contains two separate c-di-GMP-binding sites, and shares a mutually intercalated c-di-GMP dimer in a stacking conformation with a crystallographic symmetry related binding site (Fig. 2a–c). […] The interactions stabilizing the c-di-GMPs are different for the two binding sites (Fig. 2d, e, and details are described in Supplementary Note 1). […] This structural feature allows us to perform fluorescence polarization (FP)-based binding assays[19],[23],[24] by using a fluoresceinated c-di-GMP analog, 2′-Fluo-AHC-c-di-GMP (F-c-di-GMP), containing a fluorophore attached to one of the 2′-ribose hydroxyls (Fig. 2f).
(§1) F-c-di-GMP and F-c-di-AMP both contain a fluorophore at one of the 2′-ribose hydroxyls of c-di-GMP and c-di-AMP, respectively (Fig. 2f). To measure the binding of c-di-GMP and c-di-AMP to BrlR variants, 1 nM F-c-di-GMP or F-c-di-AMP was incubated with increasing amounts of indicated BrlR WT, BrlR mutation, or BrlR-C in reaction buffer (25 mM HEPES, 100 mM NaCl, pH 7.5) at 25 °C for 20 min. 1 nM fluorescein was incubated with BrlR WT in the same reaction buffer at 25 °C. FP measurements were conducted on a Synergy 4 Microplate Reader (BioTek) at 25 °C. All experiments were performed in triplicate. The curves were fitted to deduce binding affinities by GraphPad Prism 5.
(Fluorescence polarisation rises when a labelled molecule tumbles more slowly, as on binding a larger partner.)

Data set [5] has as its target T4, BrlR-C2E mut1 (R31A/D35A/Y40A/Y270A) (Pseudomonas aeruginosa, UniProt Q9HUT5, D35A/R31A/Y270A/Y40A).
T4 construct: His6-SUMO (N, cleaved yes); made in house; host or cells: E. coli BL21 DE3
The data set is described as follows: FP binding assay, BrlR-C2E mut1. Here is the method:
as §1
(§2) BrlR–c-di-GMPs interactions in two separate c-di-GMP binding sites
(§3) In the first binding site, c-di-GMP is half accommodated by the antiparallel β-sheet and two residues (M1 and D35). In detail, the backbone amide protons of the first M1 residue form a hydrogen bond (H-bond) with the phosphate oxygen atom of c-di-GMP, and the side chain of R31 forms two H-bonds with the Gua1 base. The residue D35 also forms an H-bond with the Gua1 base. The aromatic ring of Y40 interacts with the Gua1 base through a hydrophobic π-π interaction. In addition, the hydroxyl group of the Y270 side chain from another subunit interacts with the phosphate 2 of c-di-GMP via an H-bond (Fig. 2d). […]

The target of data set [6] is T5, BrlR-C2E mut2 (R67A/R86A) (Pseudomonas aeruginosa, UniProt Q9HUT5, R67A/R86A).
T5 construct: His6-SUMO (N, cleaved yes); made in house; host or cells: E. coli BL21 DE3
The data set is described as follows: FP binding assay, BrlR-C2E mut2. Here is the method: as §1, §2, §3

Data set [7] addresses T6, BrlR (UniProt Q9HUT5 1-270).
T6 sequence: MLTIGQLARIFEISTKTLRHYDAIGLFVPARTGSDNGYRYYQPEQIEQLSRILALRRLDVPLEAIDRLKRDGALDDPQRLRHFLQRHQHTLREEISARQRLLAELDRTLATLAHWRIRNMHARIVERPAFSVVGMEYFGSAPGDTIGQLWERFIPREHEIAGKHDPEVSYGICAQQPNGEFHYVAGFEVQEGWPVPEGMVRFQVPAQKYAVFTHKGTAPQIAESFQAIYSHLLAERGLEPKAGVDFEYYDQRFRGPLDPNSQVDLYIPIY
The data set is described as follows: EMSA. Particulars: protein: recombinant; tags: none (His6-SUMO removed); chain copies: 4; label: 5' FAM on strand 1; blunt.

The target in data set [8] is T7, BrlR C2E mut1 (UniProt Q9HUT5 1-270, R31A;D35A;Y40A;Y270A).
T7 sequence: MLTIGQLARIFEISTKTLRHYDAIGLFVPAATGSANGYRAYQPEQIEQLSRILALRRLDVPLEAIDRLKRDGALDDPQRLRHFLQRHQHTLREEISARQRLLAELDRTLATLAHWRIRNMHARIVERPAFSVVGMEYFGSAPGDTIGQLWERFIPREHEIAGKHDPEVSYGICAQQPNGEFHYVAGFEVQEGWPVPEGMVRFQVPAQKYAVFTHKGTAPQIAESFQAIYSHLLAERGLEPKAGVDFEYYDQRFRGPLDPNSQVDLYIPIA
The experiment in a line: EMSA; c-di-GMP (increased). Particulars: protein: recombinant; tags: none (His6-SUMO removed); chain copies: 2; label: 5' FAM on strand 1; blunt. A general note: Mobility shift assays separate free from complexed probe on a gel.

Data set [9] concerns the target T8, BrlR C2E mut2 (UniProt Q9HUT5 1-270, R67A;R86A).
T8 sequence: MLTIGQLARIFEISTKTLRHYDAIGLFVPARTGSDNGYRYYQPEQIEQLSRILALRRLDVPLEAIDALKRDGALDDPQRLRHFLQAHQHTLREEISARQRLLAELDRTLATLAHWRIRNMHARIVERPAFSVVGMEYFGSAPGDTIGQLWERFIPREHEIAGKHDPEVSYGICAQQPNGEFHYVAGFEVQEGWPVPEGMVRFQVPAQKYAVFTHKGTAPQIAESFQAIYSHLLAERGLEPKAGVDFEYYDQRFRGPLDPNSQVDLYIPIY
The data set is described as follows: EMSA; c-di-GMP (increased). The settings on record: protein: recombinant; tags: none (His6-SUMO removed); chain copies: 2; label: 5' FAM on strand 1; blunt.

As to `Nc1nc2c(ncn2[C@@H]2O[C@H](COP(=O)(O)OP(=O)(O)OP(=O)(O)O)[C@@H](O)[C@H]2O)c(=O)[nH]1` [GTP], in data set [1], the “effect on binding of c-di-GMP to BrlR” value was “not affected”.
Take `CC[n+]1c(-c2ccccc2)c2cc(N)ccc2c2ccc(N)cc21` [EB, ethidium bromide]: the “competition with F-c-di-GMP binding to BrlR-C” value in data set [2] is reported as “outcompeted”. The “staining of protein in native gel” value in data set [3] is given as “readily stained”.
For 2′-fluo-AHC-c-di-AMP [F-c-di-AMP], the Kd in data set [4] is 12.9 ± 0.7 µM; in data set [4] (listed as 2′-fluo-AHC-c-di-AMP) it was 12.9 ± 0.65 µM; in [5] it was 63.7 ± 5.1 µM; in data set [6], 10.3 ± 0.2 µM.

B1: PbrlR 36-bp (dsDNA)
DNA 1: ACCCCTTGACCTTGCCCCAGGGGCAATCCGTAGTCT
DNA 2: AGACTACGGATTGCCCCTGGGGCAAGGTCAAGGGGT
For B1, the binding result in [7], in [8] and in data set [9] was “binds” each time.

In general, Kd refers to the constant that tells how readily two partners part at equilibrium.
